Patent US20240350481A1, “USE OF N-MYRISTOYL TRANSFERASE (NMT) INHIBITORS IN THE TREATMENT OF CANCER, AUTOIMMUNE DISORDERS, AND INFLAMMATORY DISORDERS” (PACYLEX PHARMACEUTICALS INC., priority 2020, published 2024)

Legend:
[1] = rats; cited from earlier work
[2] = test system: patient DLBCL3 derived lymphoma xenograft; assay: DLBCL3 patient-derived xenograft, tumor growth; type: in vivo, mouse; conditions: 20 mg/kg subcutaneous daily, 21 days
Protocol: The dose volume was 10 mL/kg.
TGI (%)=(Vcontrol−Vtreated)/(Vcontrol−Vnitial)*100.
The pleural fluid was collected in cold sterile 20% RPMI 1640 medium and neoplastic cells were isolated with Ficoll-Paque Plus (GE Healthcare) and re-suspended in […] (Life Technologies) with 20% foetal bovine serum (Life Technologies, Carlsbad, CA). […] The cell suspension was injected subcutaneously in the flank of 4-6-week-old NODscid mice. When the tumors reached a maximum of 1000 mm^3, the mice were sacrificed, tumors were harvested, and a necropsy was performed. Xenograft tumors were immediately frozen, fixed in formalin, and stored in 90% foetal bovine serum, and 10% dimethyl sulfoxide or placed in RPMI 1640 medium. This process was repeated to produce subsequent generations of patient-derived xenograft models (P2, P3, P4, . . . ). To evaluate the maintenance of the morphology and main characteristics of the tumor of origin, formalin-fixed, paraffin-embedded tissue sections from patient tumor samples and xenografts of all established patient-derived xenograft models were stained with haematoxylin and eosin. These sections were also immunostained to measure the expression of various markers. A clinical pathologist reviewed all the slides. […]

## Cc1c(N[S+](=O)([O-])c2c(Cl)cc(-c3ccnc(N4CCNCC4)c3)cc2Cl)c(CC(C)C)nn1C [PCLX-001]
[1]
  toxicity at high dose levels: hematopoietic toxicity
[2]
  TGI: 66%
